For one compound, IC50 and Activity results are on record in ChEMBL document CHEMBL4390652, “Design, biological evaluation and X-ray crystallography of nanomolar multifunctional ligands targeting simultaneously acetylcholinesterase and glycogen synthase kinase-3” (Eur J Med Chem, 2019).

Test [1] has as its target Cyclin-dependent kinase 5/CDK5 activator 1 (Homo sapiens, UniProt Q00535). It counts as protein-complex assay.
Description: Inhibition of human recombinant CDK5/p25 using histone H1 as substrate in presence of [gamma-33P]ATP incubated for 30 mins by liquid scintillation counting assay
Test [2] concerns Tyrosine-protein kinase ABL1 (Homo sapiens), P00519 [T315I]. In words: Binding affinity to human phosphorylated ABL1 T315I mutant (S229 to K512 residues) expressed in mammalian expression system assessed as residual binding level at 10 uM by Kinomescan method relative to control.
Test [3] addresses Ankyrin repeat and protein kinase domain-containing protein 1 (Homo sapiens) (UniProt Q8NFD2). Put plainly: Binding affinity to wild-type human partial length ANKK1 (M1 to A305 residues) expressed in mammalian expression system assessed as residual binding level at 10 uM by Kinomescan method relative to control.
Test [4] has as its target Cyclin-dependent kinase 19 (Homo sapiens) (UniProt Q9BWU1). In words: Binding affinity to wild-type human partial length CDK11 (M1 to N360 residues) expressed in bacterial expression system assessed as residual binding level at 10 uM by Kinomescan method relative to control.
Test [5] has as its target Cyclin-dependent kinase-like 5 (Homo sapiens) (UniProt O76039). In words: Binding affinity to wild-type human partial length CDKL5 (M1 to S337 residues) expressed in mammalian expression system assessed as residual binding level at 10 uM by Kinomescan method relative to control.
Test [6] deals with Ephrin type-A receptor 7 (Homo sapiens) (UniProt Q15375). Put plainly: Binding affinity to wild-type human partial length EPHA7 (Y608 to S912 residues) expressed in bacterial expression system assessed as residual binding level at 10 uM by Kinomescan method relative to control.
In test [7] the target is Ephrin type-B receptor 4 (Homo sapiens) (UniProt P54760). Put plainly: Binding affinity to wild-type human partial length EPHB4 (H585 to G892 residues) expressed in bacterial expression system assessed as residual binding level at 10 uM by Kinomescan method relative to control.
Ephrin type-B receptor 4 (Homo sapiens), sequence (P54760 whole entry, the tested form may be a part): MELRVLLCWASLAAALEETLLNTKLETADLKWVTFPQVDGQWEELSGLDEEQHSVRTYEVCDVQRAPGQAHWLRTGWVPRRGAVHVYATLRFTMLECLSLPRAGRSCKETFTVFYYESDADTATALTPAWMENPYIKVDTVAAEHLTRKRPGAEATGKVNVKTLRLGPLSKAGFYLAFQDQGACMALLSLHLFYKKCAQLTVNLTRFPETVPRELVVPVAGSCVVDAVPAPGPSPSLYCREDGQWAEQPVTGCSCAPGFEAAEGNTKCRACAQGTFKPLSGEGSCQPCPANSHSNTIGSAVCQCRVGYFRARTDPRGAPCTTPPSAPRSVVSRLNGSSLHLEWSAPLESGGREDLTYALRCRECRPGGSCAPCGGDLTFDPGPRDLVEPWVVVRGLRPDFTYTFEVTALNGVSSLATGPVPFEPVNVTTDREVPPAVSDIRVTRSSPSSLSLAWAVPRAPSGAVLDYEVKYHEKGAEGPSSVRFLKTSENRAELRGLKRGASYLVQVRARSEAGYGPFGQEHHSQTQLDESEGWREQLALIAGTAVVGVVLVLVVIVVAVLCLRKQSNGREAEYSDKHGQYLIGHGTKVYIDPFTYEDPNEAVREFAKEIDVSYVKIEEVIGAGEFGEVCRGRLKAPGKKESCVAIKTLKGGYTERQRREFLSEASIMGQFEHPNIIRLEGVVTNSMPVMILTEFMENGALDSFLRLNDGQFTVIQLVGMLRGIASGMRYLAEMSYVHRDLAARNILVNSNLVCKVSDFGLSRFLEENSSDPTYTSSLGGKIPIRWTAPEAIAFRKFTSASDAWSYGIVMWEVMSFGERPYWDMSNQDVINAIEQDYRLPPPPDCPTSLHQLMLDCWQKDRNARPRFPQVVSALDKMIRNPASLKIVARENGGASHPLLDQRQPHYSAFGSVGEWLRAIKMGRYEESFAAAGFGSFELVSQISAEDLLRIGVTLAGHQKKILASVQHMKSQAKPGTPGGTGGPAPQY
For test [8], the target named is Mitogen-activated protein kinase 1 (Homo sapiens) (UniProt P28482). In words: Binding affinity to wild-type human full length ERK2 (M1 to S360 residues) expressed in bacterial expression system assessed as residual binding level at 10 uM by Kinomescan method relative to control.
Mitogen-activated protein kinase 1 (Homo sapiens), sequence (P28482 whole entry, the tested form may be a part): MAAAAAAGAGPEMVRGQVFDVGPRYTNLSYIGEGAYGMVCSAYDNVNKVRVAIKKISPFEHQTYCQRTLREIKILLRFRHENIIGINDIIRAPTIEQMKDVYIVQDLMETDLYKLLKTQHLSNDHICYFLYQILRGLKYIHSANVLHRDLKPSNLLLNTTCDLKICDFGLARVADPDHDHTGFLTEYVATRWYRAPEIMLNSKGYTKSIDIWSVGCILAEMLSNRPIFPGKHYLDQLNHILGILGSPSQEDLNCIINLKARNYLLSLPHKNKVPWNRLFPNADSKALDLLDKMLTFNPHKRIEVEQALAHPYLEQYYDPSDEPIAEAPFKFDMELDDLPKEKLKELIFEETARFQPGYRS
The target in test [9] is Tyrosine-protein kinase JAK3 (Homo sapiens) (UniProt P52333). In words: Binding affinity to wild-type human partial length JAK3 JH1 catalytic domain (I781 to S1124 residues) expressed in mammalian expression system assessed as residual binding level at 10 uM by Kinomescan method relative to control.
In test [10] the test system is Mast/stem cell growth factor receptor Kit (Homo sapiens), P10721 [V559D,T670I]. In words: Binding affinity to human partial length KIT V559D/T670I double mutant (Y545 to D952 residues) expressed in bacterial expression system assessed as residual binding level at 10 uM by Kinomescan method relative to control.
For test [11], the target named is Mitogen-activated protein kinase kinase kinase kinase 5 (Homo sapiens) (UniProt Q9Y4K4). In words: Binding affinity to wild-type human partial length MAP4K5 (M1 to P297 residues) expressed in bacterial expression system assessed as residual binding level at 10 uM by Kinomescan method relative to control.
Mitogen-activated protein kinase kinase kinase kinase 5 (Homo sapiens), sequence (Q9Y4K4 whole entry, looked up, the tested form may be a part): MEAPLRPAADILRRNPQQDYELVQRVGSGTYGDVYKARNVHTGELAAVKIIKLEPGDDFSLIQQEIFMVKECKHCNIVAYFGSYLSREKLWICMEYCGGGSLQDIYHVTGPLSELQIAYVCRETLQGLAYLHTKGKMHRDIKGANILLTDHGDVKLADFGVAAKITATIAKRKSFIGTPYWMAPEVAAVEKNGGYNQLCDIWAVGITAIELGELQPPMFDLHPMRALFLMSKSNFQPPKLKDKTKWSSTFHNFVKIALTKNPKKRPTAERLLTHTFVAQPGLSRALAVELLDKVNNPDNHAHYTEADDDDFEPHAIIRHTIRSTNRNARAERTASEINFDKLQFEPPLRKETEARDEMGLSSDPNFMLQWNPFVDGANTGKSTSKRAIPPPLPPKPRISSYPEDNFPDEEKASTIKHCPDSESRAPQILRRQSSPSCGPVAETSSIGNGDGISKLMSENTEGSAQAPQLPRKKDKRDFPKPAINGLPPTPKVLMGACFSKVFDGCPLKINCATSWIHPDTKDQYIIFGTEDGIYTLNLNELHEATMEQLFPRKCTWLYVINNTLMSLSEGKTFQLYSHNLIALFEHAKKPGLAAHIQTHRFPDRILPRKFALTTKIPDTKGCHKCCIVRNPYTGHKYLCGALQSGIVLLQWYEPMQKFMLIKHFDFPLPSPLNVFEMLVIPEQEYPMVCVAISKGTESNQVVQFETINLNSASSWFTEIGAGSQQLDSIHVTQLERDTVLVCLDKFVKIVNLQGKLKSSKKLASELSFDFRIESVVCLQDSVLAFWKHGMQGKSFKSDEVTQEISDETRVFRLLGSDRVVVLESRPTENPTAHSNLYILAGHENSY
Test [12] addresses Dual specificity mitogen-activated protein kinase kinase 3 (Homo sapiens) (UniProt P46734). In words: Binding affinity to wild-type human full length MEK3 (M1 to S318 residues) expressed in mammalian expression system assessed as residual binding level at 10 uM by Kinomescan method relative to control.
Test [13] deals with MAP kinase-interacting serine/threonine-protein kinase 1 (Homo sapiens) (UniProt Q9BUB5). Put plainly: Binding affinity to wild-type human full length MKNK1 (M1 to L424 residues) expressed in mammalian expression system assessed as residual binding level at 10 uM by Kinomescan method relative to control.
Test [14] concerns the target Serine/threonine-protein kinase 24 (Homo sapiens) (UniProt Q9Y6E0). Put plainly: Binding affinity to wild-type human partial length MST3 (A30 to S311 residues) expressed in bacterial expression system assessed as residual binding level at 10 uM by Kinomescan method relative to control.
The target of test [15] is Myosin light chain kinase 2, skeletal/cardiac muscle (Homo sapiens) (UniProt Q9H1R3). Put plainly: Binding affinity to wild-type human partial length MYLK2 (D258 to K570 residues) expressed in bacterial expression system assessed as residual binding level at 10 uM by Kinomescan method relative to control.
Test [16] concerns the target Cyclin-dependent kinase 17 (Homo sapiens) (UniProt Q00537). Put plainly: Binding affinity to wild-type human full length PCTK2 (M1 to F523 residues) expressed in bacterial expression system assessed as residual binding level at 10 uM by Kinomescan method relative to control.
Test [17] concerns Phosphatidylinositol 4,5-bisphosphate 3-kinase catalytic subunit alpha isoform (Homo sapiens), P42336 [E545K]. In words: Binding affinity to human partial length PIK3CA E545K mutant (R108 to N1068 residues) expressed in mammalian expression system assessed as residual binding level at 10 uM by Kinomescan method relative to control.
Phosphatidylinositol 4,5-bisphosphate 3-kinase catalytic subunit alpha isoform (Homo sapiens), P42336 [E545K], sequence (P42336 whole entry E545K, the tested form may be a part, canonical isoform): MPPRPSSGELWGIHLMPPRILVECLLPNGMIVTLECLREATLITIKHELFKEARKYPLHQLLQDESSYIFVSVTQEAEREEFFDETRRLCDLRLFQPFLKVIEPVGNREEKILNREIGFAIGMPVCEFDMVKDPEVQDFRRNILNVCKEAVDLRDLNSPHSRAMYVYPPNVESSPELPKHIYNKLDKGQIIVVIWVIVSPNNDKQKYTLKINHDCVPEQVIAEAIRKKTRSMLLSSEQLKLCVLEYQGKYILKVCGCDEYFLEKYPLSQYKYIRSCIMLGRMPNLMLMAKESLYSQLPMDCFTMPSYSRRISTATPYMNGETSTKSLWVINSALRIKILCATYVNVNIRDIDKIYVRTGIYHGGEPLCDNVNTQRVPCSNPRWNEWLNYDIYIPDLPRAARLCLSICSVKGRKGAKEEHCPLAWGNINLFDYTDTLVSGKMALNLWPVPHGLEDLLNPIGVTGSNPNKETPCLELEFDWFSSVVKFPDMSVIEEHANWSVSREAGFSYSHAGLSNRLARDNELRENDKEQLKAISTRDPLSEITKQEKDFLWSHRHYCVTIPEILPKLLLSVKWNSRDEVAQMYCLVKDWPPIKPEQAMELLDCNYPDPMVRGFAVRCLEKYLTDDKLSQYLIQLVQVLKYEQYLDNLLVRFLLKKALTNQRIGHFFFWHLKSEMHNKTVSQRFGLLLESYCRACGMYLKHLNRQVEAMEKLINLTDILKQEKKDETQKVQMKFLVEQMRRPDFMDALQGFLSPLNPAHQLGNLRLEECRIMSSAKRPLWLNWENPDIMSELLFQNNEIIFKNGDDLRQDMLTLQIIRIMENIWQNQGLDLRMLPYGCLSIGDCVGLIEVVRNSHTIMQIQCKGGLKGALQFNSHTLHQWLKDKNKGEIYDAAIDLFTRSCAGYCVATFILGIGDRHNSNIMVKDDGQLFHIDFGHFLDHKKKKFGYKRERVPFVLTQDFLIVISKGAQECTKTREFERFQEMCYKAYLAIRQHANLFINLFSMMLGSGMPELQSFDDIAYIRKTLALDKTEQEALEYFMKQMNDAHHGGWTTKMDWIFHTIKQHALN
In test [18] the test system is Phosphatidylinositol 4,5-bisphosphate 3-kinase catalytic subunit alpha isoform (Homo sapiens), P42336 [I800L]. Put plainly: Binding affinity to human partial length PIK3CA I800L mutant (R108 to N1068 residues) expressed in mammalian expression system assessed as residual binding level at 10 uM by Kinomescan method relative to control.
Test [19] has as its target cAMP-dependent protein kinase catalytic subunit beta (Homo sapiens) (UniProt P22694). In words: Binding affinity to wild-type human full length PKAC-beta (M1 to F351 residues) expressed in bacterial expression system assessed as residual binding level at 10 uM by Kinomescan method relative to control.
In test [20] the target is Serine/threonine-protein kinase N2 (Homo sapiens) (UniProt Q16513). Put plainly: Binding affinity to wild-type human partial length PKN2 (E634 to C984 residues) expressed in bacterial expression system assessed as residual binding level at 10 uM by Kinomescan method relative to control.
For test [21], the target named is Protein kinase C iota type (Homo sapiens) (UniProt P41743). In words: Binding affinity to wild-type human partial length PRKCI (H215 to V587 residues) expressed in mammalian expression system assessed as residual binding level at 10 uM by Kinomescan method relative to control.
The target of test [22] is Transient receptor potential cation channel subfamily M member 6 (Homo sapiens) (UniProt Q9BX84). In words: Binding affinity to wild-type human partial length TRPM6 (Q1723 to I1998 residues) expressed in mammalian expression system assessed as residual binding level at 10 uM by Kinomescan method relative to control.
Test [23] has as its target Wee1-like protein kinase (Homo sapiens) (UniProt P30291). In words: Binding affinity to wild-type human partial length WEE1 (M291 to K575 residues) expressed in bacterial expression system assessed as residual binding level at 10 uM by Kinomescan method relative to control.
In test [24] the target is Serine/threonine-protein kinase WNK4 (Homo sapiens) (UniProt Q96J92). In words: Binding affinity to wild-type human partial length WNK4 (A31 to D461 residues) expressed in mammalian expression system assessed as residual binding level at 10 uM by Kinomescan method relative to control.

Dual specificity mitogen-activated protein kinase kinase 3 (Homo sapiens), sequence (P46734 whole entry, the tested form may be a part): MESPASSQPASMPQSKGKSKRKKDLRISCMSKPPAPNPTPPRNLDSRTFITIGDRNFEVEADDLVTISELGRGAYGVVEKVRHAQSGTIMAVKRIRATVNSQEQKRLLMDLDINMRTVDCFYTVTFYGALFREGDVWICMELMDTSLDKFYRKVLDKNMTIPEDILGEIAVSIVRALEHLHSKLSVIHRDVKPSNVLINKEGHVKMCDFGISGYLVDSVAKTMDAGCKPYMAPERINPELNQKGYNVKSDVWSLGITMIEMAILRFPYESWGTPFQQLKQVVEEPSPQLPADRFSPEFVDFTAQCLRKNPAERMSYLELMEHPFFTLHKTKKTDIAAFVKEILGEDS
Cyclin-dependent kinase 19 (Homo sapiens), sequence (Q9BWU1 whole entry, the tested form may be a part): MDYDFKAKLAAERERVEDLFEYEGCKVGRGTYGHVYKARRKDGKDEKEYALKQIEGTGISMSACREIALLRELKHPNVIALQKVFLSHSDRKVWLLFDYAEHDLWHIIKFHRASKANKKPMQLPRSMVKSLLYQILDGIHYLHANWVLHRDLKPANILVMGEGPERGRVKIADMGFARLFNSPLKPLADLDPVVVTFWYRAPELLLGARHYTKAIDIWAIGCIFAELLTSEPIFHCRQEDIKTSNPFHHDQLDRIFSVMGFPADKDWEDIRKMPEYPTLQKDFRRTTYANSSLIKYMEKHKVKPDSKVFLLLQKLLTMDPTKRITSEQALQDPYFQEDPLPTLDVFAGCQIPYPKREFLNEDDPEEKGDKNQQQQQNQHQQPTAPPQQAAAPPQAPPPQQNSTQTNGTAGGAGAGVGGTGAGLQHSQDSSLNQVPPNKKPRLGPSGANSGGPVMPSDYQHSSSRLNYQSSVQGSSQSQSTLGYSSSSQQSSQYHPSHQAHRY
Wee1-like protein kinase (Homo sapiens), sequence (P30291 whole entry, looked up, the tested form may be a part): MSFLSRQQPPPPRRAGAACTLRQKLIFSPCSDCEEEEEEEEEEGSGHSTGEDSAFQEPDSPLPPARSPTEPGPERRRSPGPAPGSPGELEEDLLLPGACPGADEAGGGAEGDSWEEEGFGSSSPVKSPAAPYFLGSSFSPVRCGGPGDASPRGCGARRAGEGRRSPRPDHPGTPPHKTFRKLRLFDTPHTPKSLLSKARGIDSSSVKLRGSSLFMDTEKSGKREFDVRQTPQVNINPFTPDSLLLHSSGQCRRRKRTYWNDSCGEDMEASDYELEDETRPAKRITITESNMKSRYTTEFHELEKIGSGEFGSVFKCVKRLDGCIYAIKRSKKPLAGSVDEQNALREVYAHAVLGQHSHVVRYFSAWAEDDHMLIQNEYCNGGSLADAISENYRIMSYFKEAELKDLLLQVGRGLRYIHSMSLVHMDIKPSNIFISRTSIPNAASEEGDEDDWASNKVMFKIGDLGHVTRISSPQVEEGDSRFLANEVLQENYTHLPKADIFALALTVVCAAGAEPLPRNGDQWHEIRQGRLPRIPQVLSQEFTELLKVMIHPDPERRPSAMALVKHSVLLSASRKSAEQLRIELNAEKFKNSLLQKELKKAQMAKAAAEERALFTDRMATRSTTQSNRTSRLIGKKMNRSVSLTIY

Consider `O=C(Nc1cc(-c2cn(CCNc3c4c(nc5ccccc35)CCCC4)nn2)ccn1)Nc1cccc2c1C1CCCCN1C2=O` (racemic), for which the IC50 (in general, the concentration needed to halve the response being measured) in test [1] was determined as 0.8 µM. For the same compound, the Activity is 2.9% in [2]; 93% in test [3]; 94% in [4]; 0.35% in test [5]; 76% in [6]; 100% in [7]. The Activity in test [8] was determined as 94%; in [9], 0.28%; in test [10], 3.4%; in [11], 25%; in test [12], 70%; in [13] it was 100%. Besides, the Activity is 59% in test [14]; 24% in test [15]; 4.2% in test [16]; 78% in test [17]; 55% in [18]; 99% in [19]. In addition, the Activity stood at 4.8% in test [20]; 100% in test [21]; 100% in test [22]; 100% in [23]; 100% in test [24].
